Assay results from patent US9790173B2, “Alpha-7 nicotinic acetylcholine receptor modulators and uses thereof-I” (MERCK SHARP & DOHME CORP., priority 2012, dated 2017).

Tests used:
mice = experiment: T-maze Continuous Alternation Task (T-CAT), scopolamine-induced cognitive impairment; format: in vivo; conditions: mouse; dosed orally at 10 mg/kg; scopolamine-induced deficit
Source text: The T-maze Continuous Alternation Task (T-CAT) measures spontaneous alternation, which is the innate tendency of mice to alternate free choices in a T-maze over a series of successive runs. This sequential procedure relies on working memory and is sensitive to various pharmacological manipulations affecting memory processes.
The T-maze apparatus is made of gray Plexiglas with a main stem (55 cm long×10 cm wide×25 cm high) and two arms (30 cm long×10 cm wide×25 cm high) positioned at 90 degree angle relative to the main stem. A start box (15 cm long×10 cm wide) is separated from the main stem by a sliding door. Sliding doors are also provided to close specific arms during the forced-choice alternation task.
The experimental protocol consists of one single session, which starts with 1 “forced-choice” trial, followed by 14 “free-choice” trials. In the first “forced-choice” trial, the animal is confined for 5 s in the start arm and then it is released while either the left or right goal arm is blocked by a sliding door. The animal will negotiate the maze, eventually enter the open goal arm, and return to the start position. Immediately after the return to the start position, the left or right goal door is opened and the animal is allowed to choose freely between the left and right goal arm (“free choice” trials). The animal is considered to have entered an arm when it places four paws in the arm. A session is terminated and the animal is removed from the maze as soon as 14 free-choice trials have been performed or 10 minutes have elapsed, whichever event occurs first. The percentage of alternation over the 14 free-choice trials is determined for each mouse and is used as an index of working memory performance. This percentage is defined as entry in a different arm of the T-maze over successive visits (i.e., left-right-left-right, etc).
Scopolamine administered 20 minutes prior the initiation of the T-maze session is used to induce disruption in the spontaneous alternation of mice. Test compounds are administered 60 minutes prior the start of the T-maze session in order to evaluate their ability to reverse the scopolamine effect.
The apparatus is cleaned between each animal using alcohol (70°). Urine and faeces are removed from the maze. During the trials, animal handling and the visibility of the operator are minimized as much as possible.
The compounds were dosed orally at 10 mg/kg.

rat α7 nAChRs = biological target: T1, rat α7 nAChRs (Rattus norvegicus, UniProt Q05941); experiment: Automated planar patch clamp (Patchliner) electrophysiology, α7 nAChR PAM activity; format: cell-based; design: key to Type I or Type II: I: Type 1 predominately affects the peak current; Type II modulators affect the peak current and also delay the desensitization of the receptor; conditions: for activation at 3 µM: GH4-C1, 3 μM compound in the presence of acetylcholine, GH4C1 cells expressing rat α7 nAChRs, peak current, read-out: Peak potentiation at 3 μM compound; for Type I or Type II: modulator type based on the electrophysiology trace
T1 construct: expressed in transfected cells; host or cells: GH4C1 cells (rat pituitary line) stably expressing α7 nAChR
T1 sequence (Q05941 23-502): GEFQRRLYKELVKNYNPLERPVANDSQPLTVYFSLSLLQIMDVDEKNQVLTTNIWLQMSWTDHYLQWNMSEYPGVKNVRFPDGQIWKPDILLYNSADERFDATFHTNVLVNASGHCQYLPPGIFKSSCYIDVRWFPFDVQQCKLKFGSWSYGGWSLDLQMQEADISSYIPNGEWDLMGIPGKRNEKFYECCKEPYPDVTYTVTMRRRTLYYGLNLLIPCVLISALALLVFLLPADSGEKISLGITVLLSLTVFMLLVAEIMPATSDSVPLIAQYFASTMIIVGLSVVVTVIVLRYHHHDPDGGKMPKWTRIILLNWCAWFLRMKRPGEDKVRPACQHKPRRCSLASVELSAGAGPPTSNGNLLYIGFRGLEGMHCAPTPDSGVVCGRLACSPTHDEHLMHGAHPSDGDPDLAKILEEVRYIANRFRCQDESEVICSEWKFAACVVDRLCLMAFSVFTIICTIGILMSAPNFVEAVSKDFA
Experimental: Tested compounds were prepared by serial dilutions of 10 mM stock solution in DMSO to concentrations of the compound 1000 times higher than its final concentration. The DMSO stock solutions were then diluted 1:100 in the recording buffer bringing DMSO concentration to 1%. These intermediate solutions were further diluted 10 times with buffer to obtain final concentrations and lower DMSO concentration to 0.1%. […]
Compounds of the invention may be evaluated by electrophysiology using a Patchliner® (Nanion Technologies GmbH, Germany), an automated planar patch-clamp platform of medium throughput was used as a first step in electrophysiological assessment of α7 nAChR positive allosteric modulators (PAMs).
Briefly, intracellular (KCl—50 mM, NaCl—10 mM, KF—60 mM, EGTA—20 mM, HEPES—10 mM, pH—7.2, 285 mOsmol) and extracellular (NaCl—140 mM, KCl—4 mM, CaCl2—2 mM, MgCl2—1 mM, HEPES—10 mM, D-Glucose—5 mM, pH—7.4, 298 mOsmol) solutions were automatically pipetted onto NPC-16 chip (medium resistance ˜2.5-2.6 MΩ). Suspension of GH4C1 cells expressing rat α7 nAChRs was introduced in 4 wells of a medium resistance chip and suction was applied to attract cells in the holes. The extracellular solution was subsequently exchanged to high calcium solution (NaCl—80 mM, KCl—3 mM, CaCl2—45 mM, HEPES—10 mM, pH—7.4, 298 mOsmol) followed by gigaohm seal formation and obtaining whole-cell configuration. The rest of protocol was carried out in the high-calcium recording solution. Holding potential was −70 mV throughout the protocol. A control response to 60 or 100 μM of ACh was obtained first. Next, a cell was pre-incubated with compound of interest at 3 μM for ˜30 s after which the compound was co-applied with acetylcholine.
Amplitude of the responses was measured in HEKA Patchmaster software (HEKA Elektronik, Germany) and percentage of potentiation calculated. Recording was repeated […] a minimum of two replicates had been obtained per compound.
Compounds shown in Table 1 were evaluated by automated planar patch clamp on the Patchliner® as described in Example P2.1. […] The compounds are designated either as Type I or Type II modulators based on the electrophysiology trace. Type 1 predominately affects the peak current. Type II modulators affect the peak current and also delay the desensitization of the receptor.

NS(=O)(=O)c1ccc([C@H]2C[C@@H]2CNc2ccc(F)cc2)cc1 [Example 3, ±trans 4-(2-{[(4-fluorophenyl)amino]methyl}cyclopropyl)benzenesulfonamide]
T-maze % control at 10 mg/kg (mice): 62 % control | activation at 3 µM (rat α7 nAChRs): 969% | Type I or Type II (rat α7 nAChRs): I

CC1(C)[C@H](CNc2ccc(F)cc2)[C@H]1c1ccc(S(N)(=O)=O)cc1 [Example 13, ±trans 4-[3-{[(4-fluorophenyl)amino]methyl}-2,2-dimethylcyclopropyl]benzenesulfonamide]
T-maze % control at 10 mg/kg (mice): 80 % control | Type I or Type II (rat α7 nAChRs): II

CC1(C)[C@@H](CNc2ccc(F)cc2C(F)(F)F)[C@@H]1c1ccc(S(N)(=O)=O)cc1 [Example 17, 4-[(1S,3S)-3-({[4-fluoro-2-(trifluoromethyl)phenyl]amino}methyl)-2,2-dimethylcyclopropyl]benzenesulfonamide]
T-maze % control at 10 mg/kg (mice): 100 % control | Type I or Type II (rat α7 nAChRs): I

COc1ccc(Cl)cc1NC[C@@H]1[C@@H](c2ccc(S(N)(=O)=O)cc2)C1(C)C [Example 20, 4-[(1R,3R)-3-{[(5-chloro-2-methoxyphenyl)amino]methyl}-2,2-dimethylcyclopropyl]benzenesulfonamide]
T-maze % control at 10 mg/kg (mice): 100 % control | Type I or Type II (rat α7 nAChRs): I

COc1ccc(Cl)cc1NC[C@H]1[C@H](c2ccc(S(N)(=O)=O)cc2)C1(C)C [Example 21, 4-[(1S,3S)-3-{[(5-chloro-2-methoxyphenyl)amino]methyl}-2,2-dimethylcyclopropyl]benzenesulfonamide]
T-maze % control at 10 mg/kg (mice): 100 % control | Type I or Type II (rat α7 nAChRs): II

Cc1cc(F)c(F)cc1NC[C@@H]1[C@@H](c2ccc(S(N)(=O)=O)cc2)C1(C)C [Example 30, 4-[(1R,3R)-3-{[(4,5-difluoro-2-methylphenyl)amino]methyl}-2,2-dimethylcyclopropyl]benzenesulfonamide]
T-maze % control at 10 mg/kg (mice): 70 % control | melting point: 210 to 212 °C | activation at 3 µM (rat α7 nAChRs): 419% | Type I or Type II (rat α7 nAChRs): I

CC1(C)[C@@H](CNc2ccc(F)cc2OC(F)F)[C@@H]1c1ccc(S(N)(=O)=O)cc1 [Example 50, 4-[(1S,3S)-3-({[2-(difluoromethoxy)-4-fluorophenyl]amino}methyl)-2,2-dimethylcyclopropyl]benzenesulfonamide]
T-maze % control at 10 mg/kg (mice): 77 % control | Type I or Type II (rat α7 nAChRs): II

CC1(C)[C@H](CNc2ccc(F)cc2OC(F)F)[C@H]1c1ccc(S(N)(=O)=O)cc1 [Example 51, 4-[(1R,3R)-3-({[2-(difluoromethoxy)-4-fluorophenyl]amino}methyl)-2,2-dimethylcyclopropyl]benzenesulfonamide]
T-maze % control at 10 mg/kg (mice): 81 % control | activation at 3 µM (rat α7 nAChRs): 171% | Type I or Type II (rat α7 nAChRs): I

COc1ccc(Cl)cc1NC[C@H]1C[C@@H]1Cc1ccc(S(N)(=O)=O)cc1 [Example 54, ±trans 4-{[-2-{[(5-chloro-2-methoxyphenyl)amino]methyl}cyclopropyl]methyl}benzenesulfonamide]
melting point: 126 to 128 °C | activation at 3 µM (rat α7 nAChRs): 574% | Type I or Type II (rat α7 nAChRs): I
